Laboratory results taken from PubChem BioAssay AID2060510 (Molecular Pharmacology Branch, DTP, NCI, 2025).

Tested on: 439559-082-T-J2-PDC spheroids viability
Test: Anticancer human tumor 439559-082-T-J2-PDC patient-derived colon adenocarcinoma cell line growth inhibition [GQUAD]
Conditions: for IC50: curve of first compound; for viability, T/C: stronger effect = lower value
Outline: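 Tumor cells were grown as complex spheroids with HUVEC endothelial cells and mesenchymal stem cells as stroma. G-quadruplex stabilizers were combined with targeted agents over half-log dilutions from near the clinical Cmax, or from 10 microM.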

[1] = second compound 0.0316 µM, first compound 0.0316 µM
[2] = second compound 0.0316 µM, first compound 0.1 µM
[3] = second compound 0.0316 µM, first compound 0.316 µM
[4] = second compound 0.0316 µM, first compound 1 µM
[5] = second compound 0.0316 µM, first compound 3.16 µM
[6] = second compound 0.0316 µM, first compound 10 µM
[7] = second compound 0.1 µM, first compound 0.0316 µM
[8] = second compound 0.1 µM, first compound 0.1 µM
[9] = second compound 0.1 µM, first compound 0.316 µM
[10] = second compound 0.1 µM, first compound 1 µM
[11] = second compound 0.1 µM, first compound 3.16 µM
[12] = second compound 0.1 µM, first compound 10 µM
[13] = second compound 0.316 µM, first compound 0.0316 µM
[14] = second compound 0.316 µM, first compound 0.1 µM
[15] = second compound 0.316 µM, first compound 0.316 µM
[16] = second compound 0.316 µM, first compound 1 µM
[17] = second compound 0.316 µM, first compound 3.16 µM
[18] = second compound 0.316 µM, first compound 10 µM
[19] = second compound 1 µM, first compound 0.0316 µM
[20] = second compound 1 µM, first compound 0.1 µM
[21] = second compound 1 µM, first compound 0.316 µM
[22] = second compound 1 µM, first compound 1 µM
[23] = second compound 1 µM, first compound 3.16 µM
[24] = second compound 1 µM, first compound 10 µM
[25] = second compound 3.16 µM, first compound 0.0316 µM
[26] = second compound 3.16 µM, first compound 0.1 µM
[27] = second compound 3.16 µM, first compound 0.316 µM
[28] = second compound 3.16 µM, first compound 1 µM
[29] = second compound 3.16 µM, first compound 3.16 µM
[30] = second compound 3.16 µM, first compound 10 µM
[31] = second compound 10 µM, first compound 0.0316 µM
[32] = second compound 10 µM, first compound 0.1 µM
[33] = second compound 10 µM, first compound 0.316 µM
[34] = second compound 10 µM, first compound 1 µM
[35] = second compound 10 µM, first compound 3.16 µM
[36] = second compound 10 µM, first compound 10 µM
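Note: spheroids exposed to the agents for 7 days before readout.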
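Throughout, for viability, T/C: percent of luminescence signal in DMSO vehicle wells taken as 100% viability.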

COc1ncnc(C2CC2)c1-c1ncc2cnn(Cc3ccc(-c4nc(C(F)(F)F)cn4C(C)C)cc3)c2n1 + Cc1[nH]c2ccc(F)cc2c1-c1nc2c3cccnc3c3ncccc3c2[nH]1
IC50 (second compound 0.0316 µM): > 10 µM
IC50 (second compound 0.1 µM): > 10 µM
IC50 (second compound 0.316 µM): > 10 µM
IC50 (second compound 1 µM): > 10 µM
IC50 (second compound 3.16 µM): > 10 µM
IC50 (second compound 10 µM): > 10 µM
viability, T/C [1]: 102%
viability, T/C [2]: 86.8%
viability, T/C [3]: 97.2%
viability, T/C [4]: 90.3%
viability, T/C [5]: 81.5%
viability, T/C [6]: 58%
viability, T/C [7]: 112%
viability, T/C [8]: 94.8%
viability, T/C [9]: 97.6%
viability, T/C [10]: 93.8%
viability, T/C [11]: 84.6%
viability, T/C [12]: 63.6%
viability, T/C [13]: 103%
viability, T/C [14]: 104%
viability, T/C [15]: 103%
viability, T/C [16]: 90.6%
viability, T/C [17]: 83.7%
viability, T/C [18]: 72.5%
viability, T/C [19]: 99.8%
viability, T/C [20]: 92%
viability, T/C [21]: 91.9%
viability, T/C [22]: 92.5%
viability, T/C [23]: 77.8%
viability, T/C [24]: 60.4%
viability, T/C [25]: 97.3%
viability, T/C [26]: 95.3%
viability, T/C [27]: 93.2%
viability, T/C [28]: 78.2%
viability, T/C [29]: 82.5%
viability, T/C [30]: 50.6%
viability, T/C [31]: 80.8%
viability, T/C [32]: 62.9%
viability, T/C [33]: 92.6%
viability, T/C [34]: 81.7%
viability, T/C [35]: 84.8%
viability, T/C [36]: 60.7%

Cc1[nH]c2ccccc2c1CCNCc1ccc(/C=C/C(=O)NO)cc1 + Cc1[nH]c2ccc(F)cc2c1-c1nc2c3cccnc3c3ncccc3c2[nH]1
IC50 (second compound 0.0316 µM): > 0.316 µM
IC50 (second compound 0.1 µM): > 0.316 µM
IC50 (second compound 0.316 µM): > 0.316 µM
IC50 (second compound 1 µM): > 0.316 µM
IC50 (second compound 3.16 µM): > 0.316 µM
IC50 (second compound 10 µM): > 0.316 µM
viability, T/C (second compound 0.0316 µM, first compound 0.000999 µM): 97.3%
viability, T/C (second compound 0.0316 µM, first compound 0.00316 µM): 107%
viability, T/C (second compound 0.0316 µM, first compound 0.00999 µM): 92.6%
viability, T/C [1]: 85.9%
viability, T/C (second compound 0.0316 µM, first compound 0.0999 µM): 102%
viability, T/C [3]: 97.9%
viability, T/C (second compound 0.1 µM, first compound 0.000999 µM): 120%
viability, T/C (second compound 0.1 µM, first compound 0.00316 µM): 86.1%
viability, T/C (second compound 0.1 µM, first compound 0.00999 µM): 107%
viability, T/C [7]: 92.9%
viability, T/C (second compound 0.1 µM, first compound 0.0999 µM): 101%
viability, T/C [9]: 105%
viability, T/C (second compound 0.316 µM, first compound 0.000999 µM): 115%
viability, T/C (second compound 0.316 µM, first compound 0.00316 µM): 91.1%
viability, T/C (second compound 0.316 µM, first compound 0.00999 µM): 95.6%
viability, T/C [13]: 100%
viability, T/C (second compound 0.316 µM, first compound 0.0999 µM): 91.6%
viability, T/C [15]: 100%
viability, T/C (second compound 1 µM, first compound 0.000999 µM): 92.5%
viability, T/C (second compound 1 µM, first compound 0.00316 µM): 88.8%
viability, T/C (second compound 1 µM, first compound 0.00999 µM): 87.3%
viability, T/C [19]: 93.2%
viability, T/C (second compound 1 µM, first compound 0.0999 µM): 91.9%
viability, T/C [21]: 91.3%
viability, T/C (second compound 3.16 µM, first compound 0.000999 µM): 84%
viability, T/C (second compound 3.16 µM, first compound 0.00316 µM): 70.6%
viability, T/C (second compound 3.16 µM, first compound 0.00999 µM): 87.9%
viability, T/C [25]: 78.5%
viability, T/C (second compound 3.16 µM, first compound 0.0999 µM): 90.2%
viability, T/C [27]: 85.7%
viability, T/C (second compound 10 µM, first compound 0.000999 µM): 74%
viability, T/C (second compound 10 µM, first compound 0.00316 µM): 80.9%
viability, T/C (second compound 10 µM, first compound 0.00999 µM): 82.6%
viability, T/C [31]: 83.2%
viability, T/C (second compound 10 µM, first compound 0.0999 µM): 91.5%
viability, T/C [33]: 83.3%

O=C(NO)c1cnc(N2CCN(S(=O)(=O)c3ccc4ccccc4c3)CC2)nc1 + Cc1[nH]c2ccc(F)cc2c1-c1nc2c3cccnc3c3ncccc3c2[nH]1
IC50 (second compound 0.0316 µM): 2.1 µM
IC50 (second compound 0.1 µM): 1.87 µM
IC50 (second compound 0.316 µM): 3.79 µM
IC50 (second compound 1 µM): 2.04 µM
IC50 (second compound 3.16 µM): 1.35 µM
IC50 (second compound 10 µM): 1.09 µM
viability, T/C [1]: 90.8%
viability, T/C [2]: 86%
viability, T/C [3]: 75.8%
viability, T/C [4]: 60.1%
viability, T/C [5]: 44.6%
viability, T/C [6]: 31.5%
viability, T/C [7]: 84.4%
viability, T/C [8]: 79.8%
viability, T/C [9]: 75.9%
viability, T/C [10]: 64.4%
viability, T/C [11]: 37.9%
viability, T/C [12]: 31.4%
viability, T/C [13]: 85.4%
viability, T/C [14]: 76.4%
viability, T/C [15]: 76%
viability, T/C [16]: 65%
viability, T/C [17]: 55.9%
viability, T/C [18]: 30.8%
viability, T/C [19]: 86.2%
viability, T/C [20]: 85.2%
viability, T/C [21]: 77.1%
viability, T/C [22]: 64.8%
viability, T/C [23]: 41%
viability, T/C [24]: 25.7%
viability, T/C [25]: 70.3%
viability, T/C [26]: 73.7%
viability, T/C [27]: 62.1%
viability, T/C [28]: 58.1%
viability, T/C [29]: 31.6%
viability, T/C [30]: 25.8%
viability, T/C [31]: 68.2%
viability, T/C [32]: 67.4%
viability, T/C [33]: 58.4%
viability, T/C [34]: 53.1%
viability, T/C [35]: 24.2%
viability, T/C [36]: 22.4%

COc1ccc([C@@H](O)c2cc(-c3ncnc4cc(N5CCOCC5)ccc34)c(F)cc2Cl)nn1 + Cc1cnc(CNC(=O)c2c(=O)c3ccc(N4CCCN(C)CC4)nc3n3c2sc2ccccc23)cn1
IC50 (second compound 0.0316 µM): > 10 µM
IC50 (second compound 0.1 µM): > 10 µM
IC50 (second compound 0.316 µM): > 10 µM
IC50 (second compound 1 µM): 6.35 µM
IC50 (second compound 3.16 µM): 4.19 µM
IC50 (second compound 10 µM): 9.8 µM
viability, T/C [1]: 99.2%
viability, T/C [2]: 95.8%
viability, T/C [3]: 93.6%
viability, T/C [4]: 89.9%
viability, T/C [5]: 75.8%
viability, T/C [6]: 59.8%
viability, T/C [7]: 91.4%
viability, T/C [8]: 84%
viability, T/C [9]: 87.3%
viability, T/C [10]: 71.2%
viability, T/C [11]: 70.4%
viability, T/C [12]: 59%
viability, T/C [13]: 89.4%
viability, T/C [14]: 79.1%
viability, T/C [15]: 75.4%
viability, T/C [16]: 68.9%
viability, T/C [17]: 66.6%
viability, T/C [18]: 50.3%
viability, T/C [19]: 80.1%
viability, T/C [20]: 66.6%
viability, T/C [21]: 74.4%
viability, T/C [22]: 64.8%
viability, T/C [23]: 63.1%
viability, T/C [24]: 42.7%
viability, T/C [25]: 72%
viability, T/C [26]: 62.7%
viability, T/C [27]: 61.8%
viability, T/C [28]: 59.3%
viability, T/C [29]: 53.5%
viability, T/C [30]: 43.2%
viability, T/C [31]: 56.9%
viability, T/C [32]: 65.4%
viability, T/C [33]: 66.3%
viability, T/C [34]: 52.3%
viability, T/C [35]: 62.1%
viability, T/C [36]: 41%
